# Test results published in patent EP4806892A1, “CEREBLON E3 UBIQUITIN LIGASE INHIBITOR” (GAN & LEE PHARMACEUTICALS CO., LTD., priority 2023, dated 2025).
# Like-named read-outs stand apart in the source and are kept apart here.
# Target: E3 ubiquitin ligase CRBN (Homo sapiens, UniProt Q96SW2)
# Test: CRBN competitive binding assay (HTRF, thalidomide-XL665 displacement)
# Experimental: CRBN binding activity test kit (CEREBLON BINDING KITS (PE, 64BD CRBN PEG)).
# The detection is based on homogeneous time-resolved fluorescence (HTRF) technology.
# This kit uses a europium-labeled GST antibody (GST Eu Cryptate Antibody) as the donor and XL665-labeled thalidomide (Thalidomide-Red reagent) as the receptor. The donor binds to the GST-tagged CRBN protein.
# The donor and acceptor were each diluted 50-fold using the buffer (PROTAC binding buffer 1) in the kit. The CRBN protein was diluted 45-fold. The 8 mM compound solution disclosed in the present invention was diluted 10-fold using the diluent (1 X diluent) in the kit, and then the dilutd solution was subjected to 5-fold gradient dilution of the diluent, diluted 7 times sequentially. […] The mixture was incubated at room temperature for 3 hours. The ratio of the acceptor and donor emission signals for each individual well was calculated.
# IC50 value was calculated based on compound concentration, Ratio, and coefficient of variation using GraphPad Prism.
# [1] = competition with XL665-labeled thalidomide for GST-tagged CRBN protein, 3 hours at room temperature, read-out: IC50
SMILES,IC50 [1] [µM],also measured
"O=c1ccn(-c2ccc3c(c2)OC2(CCNCC2)CC3)c(=O)[nH]1 [Example A1, 1-(spiro[chroman-2,4'-piperidin]-7-yl)pyrimidine-2,4(1H,3H)-dione]",25.7,–
"O=C1CCN(c2ccc3c(c2)OC2(CCNCC2)CC3)C(=O)N1 [Example A2, 1-(spiro[chroman-2,4'-piperidin]-7-yl)dihydropyrimidine-2,4(1H,3H)-dione]",1.53,–
"O=C1CCC2(CC1)CCc1ccc(N3CCC(=O)NC3=O)cc1O2 [Example A3, 1-(4'-oxospiro[chroman-2,1'-cyclohexan]-7-yl)dihydropyrimidine-2,4(1H,3H)-dione]",0.59,–
O=C1CCC(c2ccc3c(c2)OC2(CCNCC2)CC3)C(=O)N1 (centres unmarked) [Example A4],–,"IC50 (competition with XL665-labeled thalidomide for GST-tagged CRBN protein, 3 hours at room temperature): 0.55 µM"
"O=C1CCN(c2ccc3c(c2)OC2(CC3)CNC2)C(=O)N1 [Example A5, 1-(spiro[azetidine-3,2'-chroman]-7'-yl)dihydropyrimidine-2,4(1H,3H)-dione]",3.06,–
"O=C1CCN(c2ccc3c(c2)CCC2(CCNCC2)O3)C(=O)N1 [Example A6, 1-(spiro[chromate-2,4'-piperidin]-6-yl)dihydropyrimidine-2,4(1H,3H)-dione]",7.47,–
"O=C1CCN(c2ccc3c(c2)OCC2(CCNCC2)C3)C(=O)N1 [Example A7, 1-(spiro[benzopyran-3,4'-piperidin]-7-yl)dihydropyrimidine-2,4(1H,3H)-dione]",12.7,–
"O=C1CCN(c2ccc3c(c2)CC2(CCNCC2)CO3)C(=O)N1 [Example A8, 1-(spiro[benzopyran-3,4'-piperidin]-6-yl)dihydropyrimidine-2,4(1H,3H)-dione]",9.5,–
"O=C1CCN(c2ccc3c(c2)OCC32CCNCC2)C(=O)N1 [Example A9, 1-(2H-spiro[benzofuran-3,4'-piperidin]-6-yl)dihydropyrimidine-2,4(1H,3H)-dione]",11.5,–
"CN1CC2(CCNCC2)Oc2cc(N3CCC(=O)NC3=O)ccc21 [Example A10, 1-(4-methyl-3,4-dihydrospiro[benzo[b][1,4]oxazine-2,4'-piperidin]-7-yl)dihydropyrimidine-2,4(1H,3H)-dione]",0.91,–
"O=C1CCN(c2ccc3c(c2)OC2(CCNCC2)C3)C(=O)N1 [Example A11, 1-(3H-spiro[benzofuran-2,4'-piperidin]-6-yl)dihydropyrimidine-2,4(1H,3H)-dione]",6.15,–
"O=C1CCN(c2ccc3c(c2)CC2(CCNCC2)O3)C(=O)N1 [Example A12, 1-(3H-spiro[benzofuran-2,4'-piperidin]-5-yl)dihydropyrimidine-2,4(1H,3H)-dione]",13.3,–
"O=C1CCN(c2cccc3c2OCC32CCNCC2)C(=O)N1 [Example A13, 1-(2H-spiro[benzofuran-3,4'-piperidin]-7-yl)dihydropyrimidine-2,4(1H,3H)-dione]",28.8,–
"O=C1CCN(c2ccc3c(c2)CCC2(CNC2)O3)C(=O)N1 [Example A14, 1-(spiro(azetidine-3,2'-benzodihydropyran)-6'-yl)dihydropyrimidine-2,4(1H,3H)-dione]",8.36,–
O=C1CCN(c2ccc3c(c2)OCC2(CNC2)C3)C(=O)N1 [Example A15],9.08,–
"O=C1CCN(c2ccc3c(c2)CC2(CNC2)CO3)C(=O)N1 [Example A16, 1-(spiro[azetidine-3,3'-chroman]-6'-yl)dihydropyrimidine-2,4(1H,3H)-dione]",12.6,–

SMILES,IC50 [1] [µM],also measured
"O=C1CCN(c2ccc3c(c2)OCC32CCNCC2(F)F)C(=O)N1 (centres unmarked) [Example A17, 1-(3',3'-difluoro-2H-spiro[benzofuran-3,4'-piperidin]-6-yl)dihydropyrimidine-2,4(1H,3H)-dione]",1.73,–
"O=C1CCN(c2ccc3c(c2)OCCC2CNCCN32)C(=O)N1 (centres unmarked) [Example B1, 1-(2,3,4,4a,5,6-hexahydro-1H-benzo[b]pyrazino[1,2-d][1,4]oxazepin-9-yl)dihydropyrimidine-2,4(1H,3H)-dione]",5.84,–
"O=C1CCN(c2ccc3c(c2)OCC[C@H]2CNCCN32)C(=O)N1 [Example B2, (S)-1-(2,3,4,4a,5,6-hexahydro-1H-benzo[b]pyrazino[1,2-d][1,4]oxazepin-9-yl)dihydropyrimidine-2,4(1H,3H)-dione]",6.11,–
"O=C1CCN(c2ccc3c(c2)OCC[C@@H]2CNCCN32)C(=O)N1 [Example B3, (R)-1-(2,3,4,4a,5,6-hexahydro-1H-benzo[b]pyrazino[1,2-d][1,4]oxazepin-9-yl)dihydropyrimidine-2,4(1H,3H)-dione]",5.67,–
"O=C1CCN(c2cnc3c(c2)OCC[C@H]2CNCCN32)C(=O)N1 [Example B4, (S)-1-(7,7a,8,9,10,11-hexahydro-6H-pyrazino[1,2-d]pyrido[3,2-b][1,4]oxazepin-3-yl)dihydropyrimidine-2,4(1H,3H)-dione]",5.49,–
"O=C1CCN(c2cnc3c(c2)OCC[C@@H]2CNCCN32)C(=O)N1 [Example B5, (R)-1-(7,7a,8,9,10,11-hexahydro-6H-pyrazino[1,2-d]pyrido[3,2-b][1,4]oxirane-3-yl)dihydropyrimidine-2,4(1H,3H)-dione]",10.2,–
"O=C1CCN(c2ccc3c(c2)NC(=O)CC2CNCCN32)C(=O)N1 (centres unmarked) [Example B6, 1-(6-oxo-1,2,3,4,4a,5,6,7-octahydrobenzo[b]pyrazino[1,2-d][1,4]diazepin-9-yl)dihydropyrimidine-2,4(1H,3H)-dione]",24.3,–
"CN1CC[C@H]2CNCCN2c2ccc(N3CCC(=O)NC3=O)cc21 [Example B7, (S)-1-(7-methyl-1,2,3,4,4a,5,6,7-octahydrobenzo[b]pyrazino[1,2-d][1,4]diazepin-9-yl)dihydropyrimidine-2,4(1H,3H)-dione]",3.81,–
"O=C1CCN(c2ccc3c(c2)COC[C@H]2CNCCN32)C(=O)N1 [Example B8, (R)-1-(1,2,3,4,4a,5-hexahydro-7H-benzo[e]pyrazino[2,1-c][1,4]oxazepin-9-yl)dihydropyrimidine-2,4(1H,3H)-dione]",10,–
"O=C1CCN(c2ccc3c(c2)COC[C@@H]2CNCCN32)C(=O)N1 [Example B9, (S)-1-(1,2,3,4,4a,5-hexahydro-7H-benzo[e]pyrazino[2,1-c][1,4]oxazepin-9-yl)dihydropyrimidine-2,4(1H,3H)-dione]",8.59,–
"O=C1CCN(c2ccc3c(c2)NC(=O)C2CNCCN32)C(=O)N1 (centres unmarked) [Example B10, 1-(5-oxo-2,3,4,4a,5,6-hexahydro-1H-pyrazino[1,2-a]quinoxalin-8-yl)dihydropyrimidine-2,4(1H,3H)-dione]",3.34,–
"CN1CC2CNCCN2c2ccc(N3CCC(=O)NC3=O)cc21 (centres unmarked) [Example B11, 1-(6-methyl-2,3,4,4a,5,6-hexahydro-1H-pyrazino[1,2-a]quinoxalin-8-yl)dihydropyrimidine-2,4(1H,3H)-dione]",3.76,–
COc1cc2c(cc1N1CCC(=O)NC1=O)OCC[C@H]1CN(C(C)=O)CCN21 [Example B12],2.26,–
O=C1CCN(c2cc3c(cc2F)N2CCNC[C@@H]2CCO3)C(=O)N1 [Example B13],–,IC50: 4.45 µM
"COc1cc2c(cc1N1CCC(=O)NC1=O)OCC[C@H]1CNCCN21 [Example B14, (S)-1-(10-methoxy-2,3,4,4a,5,6-hexahydro-1H-benzo[b]pyrazino[1,2-d][1,4]oxazepin-9-yl)dihydropyrimidine-2,4(1H,3H)-dione]",5.4,–
"O=C1CCN(c2cc3c(cc2Cl)N2CCNC[C@@H]2CCO3)C(=O)N1 [Example B15, (S)-1-(10-chloro-2,3,4,4a,5,6-hexahydro-1H-benzo[b]pyrazino[1,2-d][1,4]oxazepin-9-yl)dihydropyrimidine-2,4(1H,3H)-dione]",3.7,–
